# Laboratory results: ChEMBL document CHEMBL4346759, “The synthesis of a novel Crizotinib heptamethine cyanine dye conjugate that potentiates the cytostatic and cytotoxic effects of Crizotinib in patient-derived glioblastoma cell lines” (Bioorg Med Chem Lett, 2019)
# Legend:
# GBM [1] = assay: Antiproliferative activity against patient-derived GBM cells assessed as cell viability after 48 hrs by 5-Ethynyl-2'-deoxyuridine incorporation assay; assay type: functional, cell-based; details: Homo sapiens
# GBM [2] = assay: Synergistic antiproliferative activity against patient-derived GBM cells assessed as cell viability after 48 hrs in presence of temozolomide by 5-Ethynyl-2'-deoxyuridine incorporation assay; assay type: functional, cell-based; details: Homo sapiens
# GBM [3] = assay: Antiproliferative activity against patient-derived GBM cells assessed as reduction in cell viability after 48 hrs by 5-Ethynyl-2'-deoxyuridine incorporation assay; assay type: functional, cell-based; details: Homo sapiens
# GBM [4] = assay: cells; assay type: functional, cell-based; details: Homo sapiens, 48 h
# Description: Synergistic antiproliferative activity against patient-derived GBM cells assessed as reduction in cell viability after 48 hrs in presence of temozolomide by 5-Ethynyl-2'-deoxyuridine incorporation assay
# GBM [5] = assay: Cytotoxicity against patient-derived GBM cells assessed as LDH release after 96 hrs by spectrophotometric method; assay type: functional, cell-based; details: Homo sapiens
# GBM [6] = assay: Selectivity ratio of EC50 for antiproliferative activity against patient-derived GBM cells to EC50 for antiproliferative activity against patient-derived GBM cells in presence of temozolomide; assay type: functional, Homo sapiens
# GBM [7] = assay: Selectivity ratio of IC50 for antiproliferative activity against patient-derived GBM cells to IC50 for antiproliferative activity against patient-derived GBM cells in presence of temozolomide; assay type: functional, Homo sapiens
SMILES,EC50 (GBM [1]),EC50 (GBM [2]),IC50 (GBM [3]),IC50 (GBM [4]),EC50 (GBM [5]),Ratio EC50 (GBM [6]),Ratio IC50 (GBM [7])
C[C@@H](Oc1cc(-c2cnn(C3CCNCC3)c2)cnc1N)c1c(Cl)ccc(F)c1Cl [CRIZOTINIB],5600 nM,3200 nM,540 nM,480 nM,4300 nM,1.7,1.13
C[C@@H](Oc1cc(-c2cnn(C3CCN(C4=C(/C=C/C5=[N+](C)c6ccccc6C5(C)C)CCC/C4=C\C=C4\N(C)c5ccccc5C4(C)C)CC3)c2)cnc1N)c1c(Cl)ccc(F)c1Cl.[I-],50 nM,15 nM,4.7 nM,1 nM,93.1 nM,3,–
